Results reported in patent publication US9145372B2, “Pyridazine derivatives, compositions and methods for treating cognitive impairment” (AGENEBIO, INC., priority 2010, dated 2015).
Entries after “also recorded” stand apart in the source; their conditions may differ.

Experiments:
[1] = tested on: aged-impaired (AI) rats; assay: Morris water maze behavioral task after ICV infusion; type: in vivo, rat; details: 100 μg ICV
Description: The effects of 6,6 dimethyl-3-(3-hydroxypropyl)thio-1-(thiazol-2-yl)-6,7-dihydro-2-benzothiophen-4(5H)-one on the in vivo spatial memory retention of aged-impaired (AI) rats were assessed in a Morris water maze behavioral task. A water maze is a pool surrounded with a novel set of patterns relative to the maze.
Cognitively impaired aged rats were implanted unilaterally with a cannula into the lateral ventricle. Stereotaxic coordinates were 1.0 mm posterior to bregma, 1.5 mm lateral to midline, and 3.5 mm ventral to the skull surface. After about a week of recovery, the rats were pre-trained in a water maze for 2 days (6 trials per day) to locate a submerged escape platform hidden underneath the surface of the pool, in which the escape platform location varied from day to day. No intracerebroventricular (ICV) infusion was given during pre-training
After pre-training, rats received ICV infusion of either 100 μg 6,6 dimethyl-3-(3-hydroxypropyl)thio-1-(thiazol-2-yl)-6,7-dihydro-2-benzothiophen-4(5H)-one (n=6) in 5 μl DMSO or vehicle DMSO (n=5) 40 min prior to water maze training and testing. Training consisted of 8 trials per day for 2 days where the hidden escape platform remained in the same location. Rats were given 60 seconds to locate the platform with a 60 seconds inter-trial interval. The rats were given a probe test (120 seconds) 24 hr after the end of training where the escape platform was removed. During the training, there were 4 blocks, where each block had 4 training trials.
Rats treated with vehicle and 6,6 dimethyl-3-(3-hydroxypropyl)thio-1-(thiazol-2-yl)-6,7-dihydro-2-benzothiophen-4(5H)-one found the escape platform about the same time at the beginning of training (block 1). In this block of training, rats treated with vehicle and 6,6 dimethyl-3-(3-hydroxypropyl)thio-1-(thiazol-2-yl)-6,7-dihydro-2-benzothiophen-4(5H)-one both spent about 24 seconds to find the escape platform. However, rats treated with 6,6 dimethyl-3-(3-hydroxypropyl)thio-1-(thiazol-2-yl)-6,7-dihydro-2-benzothiophen-4(5H)-one were able to find the platform more proficiently (i.e., quicker) at the end of training (block 4) than those treated with vehicle alone. In block 4, rats treated with 6,6 dimethyl-3-(3-hydroxypropyl)thio-1-(thiazol-2-yl)-6,7-dihydro-2-benzothiophen-4(5H)-one spent about 9.6 seconds to find the escape platform, while rats treated with vehicle spent about 19.69 seconds.
During a test trial 24 hr after training, the escape platform was removed. The search/swim pattern of the rats was used to measure whether the rats remember where the escape platform was located during pre-trial training in order to test for the long-term memory of the rats. […]

[2] = tested on: aged-impaired (AI) rats; assay: Radial Arm Maze (RAM) behavioral task, spatial memory retention; type: in vivo, rat; details: four-hour delay RAM
Description: The effects of methyl 3,5-diphenylpyridazine-4-carboxylate on the in vivo spatial memory retention of aged-impaired (AI) rats were assessed in a Radial Arm Maze (RAM) behavioral task using vehicle control and four different dosage levels of methyl 3,5-diphenylpyridazine-4-carboxylate (0.1 mg/kg, 0.3 mg/kg, 1 mg/kg and 3 mg/kg, ip). RAM behavioral tasks were performed on eight AI rats. All five treatment conditions (vehicle and four dosage levels) were tested on all eight rats.
The RAM apparatus used consisted of eight equidistantly-spaced arms. An elevated maze arm (7 cm width×75 cm length) projected from each facet of an octagonal center platform (30 cm diameter, 51.5 cm height). Clear side walls on the arms were 10 cm high and were angled at 65° to form a trough. A food well (4 cm diameter, 2 cm deep) was located at the distal end of each arm. Froot Loops™ (Kellogg Company) were used as rewards. Blocks constructed of Plexiglas™ (30 cm height×12 cm width) could be positioned to prevent entry to any arm. Numerous extra maze cues surrounding the apparatus were also provided.
The AI rats were initially subjected to a pre-training test (Chappell et al. Neuropharmacology 37: 481-487, 1998). The pre-training test consisted of a habituation phase (4 days), a training phase on the standard win-shift task (18 days) and another training phase (14 days) in which a brief delay was imposed between presentation of a subset of arms designated by the experimenter (e.g., 5 arms available and 3 arms blocked) and completion of the eight-arm win-shift task (i.e., with all eight arms available).
In the habituation phase, rats were familiarized to the maze for an 8-minute session on four consecutive days. In each of these sessions, food rewards were scattered on the RAM, initially on the center platform and arms and then progressively confined to the arms. After this habituation phase, a standard training protocol was used, in which a food pellet was located at the end of each arm. Rats received one trial each day for 18 days. Each daily trial terminated when all eight food pellets had been obtained or when either 16 choices were made or 15 minutes had elapsed. After completion of this training phase, a second training phase was carried out in which the memory demand was increased by imposing a brief delay during the trial. At the beginning of each trial, three arms of the eight-arm maze were blocked. Rats were allowed to obtain food on the five arms to which access was permitted during this initial “information phase” of the trial. Rats were then removed from the maze for 60 seconds, during which time the barriers on the maze were removed, thus allowing access to all eight arms. […]

[3] = biological target: GABAA α5 receptor (Rattus norvegicus, UniProt P18508+P19969); assay: GABAA α5 receptor occupancy in vivo with Ro 15-4513 tracer (hippocampus vs cerebellum); details: i.v.
GABAA α5 receptor, sequence (P19969 32-464 limits assumed): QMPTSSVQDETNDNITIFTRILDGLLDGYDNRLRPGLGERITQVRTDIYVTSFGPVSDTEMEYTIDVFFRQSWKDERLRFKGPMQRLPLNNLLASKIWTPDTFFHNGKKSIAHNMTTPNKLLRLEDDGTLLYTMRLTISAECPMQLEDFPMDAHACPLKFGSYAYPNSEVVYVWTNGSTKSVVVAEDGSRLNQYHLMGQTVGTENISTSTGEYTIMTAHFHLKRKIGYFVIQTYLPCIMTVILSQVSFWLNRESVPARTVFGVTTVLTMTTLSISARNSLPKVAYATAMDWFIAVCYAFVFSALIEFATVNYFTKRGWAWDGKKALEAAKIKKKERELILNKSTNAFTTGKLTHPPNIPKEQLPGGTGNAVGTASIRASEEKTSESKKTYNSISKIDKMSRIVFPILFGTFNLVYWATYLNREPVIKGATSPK
GABAA α5 receptor, sequence (P18508 39-466): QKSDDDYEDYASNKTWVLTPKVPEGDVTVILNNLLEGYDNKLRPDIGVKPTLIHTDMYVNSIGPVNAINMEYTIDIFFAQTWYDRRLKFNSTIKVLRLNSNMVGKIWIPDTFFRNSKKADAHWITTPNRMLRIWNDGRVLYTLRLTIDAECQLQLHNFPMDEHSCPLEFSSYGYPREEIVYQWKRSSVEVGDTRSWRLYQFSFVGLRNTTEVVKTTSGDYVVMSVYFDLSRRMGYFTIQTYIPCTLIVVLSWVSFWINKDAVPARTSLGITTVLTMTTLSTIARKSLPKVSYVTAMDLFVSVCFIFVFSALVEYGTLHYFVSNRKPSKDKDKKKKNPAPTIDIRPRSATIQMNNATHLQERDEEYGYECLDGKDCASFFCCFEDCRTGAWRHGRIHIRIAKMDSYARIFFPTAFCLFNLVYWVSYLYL
GABAA α5 receptor, sequence (P63079 26-473 partner): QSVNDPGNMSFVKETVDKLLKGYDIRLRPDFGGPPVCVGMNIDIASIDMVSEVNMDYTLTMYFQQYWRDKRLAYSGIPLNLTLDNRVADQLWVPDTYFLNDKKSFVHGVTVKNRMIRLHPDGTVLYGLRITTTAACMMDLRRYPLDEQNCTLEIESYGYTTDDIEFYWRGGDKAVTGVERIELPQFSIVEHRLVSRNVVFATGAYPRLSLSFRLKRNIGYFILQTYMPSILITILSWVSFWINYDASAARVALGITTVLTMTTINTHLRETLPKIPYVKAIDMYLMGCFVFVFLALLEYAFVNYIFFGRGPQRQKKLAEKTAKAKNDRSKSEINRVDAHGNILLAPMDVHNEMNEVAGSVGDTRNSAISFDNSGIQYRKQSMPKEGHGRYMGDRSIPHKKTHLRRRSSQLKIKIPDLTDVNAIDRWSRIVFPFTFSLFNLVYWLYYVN
Text: Adult male Long Evans rats (265-295 g, Charles River, Portage, Mich., n=4/group) were used for GABAA α5 receptor occupancy studies. Rats were individually housed in ventilated stainless-steel racks on a 12:12 light/dark cycle. Food and water were available ad libitum.
Ro 15-4513 was used as a receptor occupancy (RO) tracer for GABAA α5 receptor sites in the hippocampus and cerebellum. Ro 15-4513 was chosen as the tracer based on its selectivity for GABAA α5 receptors relative to other alpha subunit containing GABAA receptors and because it has been successfully used for GABAA α5 RO studies in animals and humans (see, e.g., Lingford-Hughes et al., J. Cereb. Blood Flow Metab. 22:878-89 (2002); Pym et al, Br. J. Pharmacol. 146: 817-825 (2005); and Maeda et al., Synapse 47: 200-208 (2003)). Ro 15-4513 (1 μg/kg), was dissolved in 25% hydroxyl-propyl beta-cyclodextrin and administered i.v. 20′ prior to the RO evaluations. Methyl 3,5-diphenylpyridazine-4-carboxylate (0.1-10 mg/kg) was synthesized by Nox Pharmaceuticals (India) and was dissolved in 25% hydroxyl-propyl beta-cyclodextrin and administered i.v. 15′ prior to tracer injection.
The rats were sacrificed by cervical dislocation 20′ post tracer injection. The whole brain was rapidly removed, and lightly rinsed with sterile water. Trunk blood was collected in EDTA coated eppendorf tubes and stored on wet ice until study completion. Hippocampus and cerebellum were dissected and stored in 1.5 ml eppendorf tubes, and placed on wet ice until tissue extraction. In a drug naïve rat, six cortical brain tissues samples were collected for use in generating blank and standard curve samples.
Acetonitrile containing 0.1% formic acid was added to each sample at a volume of four times the weight of the tissue sample. For the standard curve (0.1-30 ng/g) samples, a calculated volume of standard reduced the volume of acetonitrile. The sample was homogenized (FastPrep-24, Lysing Matrix D; 5.5 m/s, for 60 seconds or 7-8 watts power using sonic probe dismembrator; Fisher Scientific) and centrifuged for 16-minutes at 14,000 rpm. The (100 μl) supernatant solution was diluted by 300 μl of sterile water (pH 6.5). This solution was then mixed thoroughly and analyzed via LC/MS/MS for […] (tracer) and methyl 3,5-diphenylpyridazine-4-carboxylate.
Receptor occupancy was determined by the ratio method which compared occupancy in the hippocampus (a region of high GABAA α5 receptor density) with occupancy in the cerebellum (a region with low GABAA α5 receptor density) and additionally by a high dose of the GABAA α5 negative allosteric modulator L-655,708 (10 mg/kg, i.v.) to define full occupancy.

[4] = probe test 24 hr after training

| SMILES | time to find the escape platform (escape latency), block 1 ([1]; beginning of training) | time to find the escape platform (escape latency), block 4 ([1]; end of training) | number of crossings of target annulus compared to opposite annulus [1, 4] | time in target annulus compared to opposite annulus [1, 4] | memory performance relative to vehicle control ([2]; 3 mg/kg) | memory performance relative to vehicle control ([2]; 10 mg/kg) | Ro 15-4513 binding in hippocampus ([3]; 0.01-10 mg/kg) | cerebellum levels (binding) of Ro 15-4513 ([3]; 0.01-10 mg/kg) | GABAA α5 receptor occupancy ([3]; 10 mg/kg) [%] |
| --- | --- | --- | --- | --- | --- | --- | --- | --- | --- |
| CC1(C)CC(=O)c2c(SCCCO)sc(-c3nccs3)c2C1 [6,6 dimethyl-3-(3-hydroxypropyl)thio-1-(thiazol-2-yl)-6,7-dihydro-2-benzothiophen-4(5H)-one] | about 24 seconds | about 9.6 seconds | more often | significantly more time in the target annulus |  |  |  |  |  |
| CCOC(=O)c1ncn2c1Cn1c(C)nnc1-c1cc(OC)ccc1-2 [ethyl 3-methoxy-7-methyl-9H-benzo[f]imidazo[1,5-a][1,2,4]triazolo[4,3-d][1,4]diazepine-10-carboxylate] |  |  |  |  | significantly improved memory performance | significantly improved memory performance | blocked; also recorded: reduced | did not affect; also recorded: without affecting | > 90 |
